From patent US20240060072A1, “METHOD AND COMPOSITION FOR TREATING NON-ALCOHOLIC FATTY LIVER DISEASE, ASSOCIATED CONDITIONS AND SYMPTOMS” (THE HONG KONG POLYTECHNIC UNIVERSITY, priority 2022, published 2024)

Key:
HFD-fed mice = assay: CCl4 or STZ treatment of HFD-fed mice: hepatic mRNA by RT-qPCR; format: in vivo, mouse; conditions: compared to untreated HFD-fed mice
mouse SCD1 promoter = assay: SCD1 promoter luciferase reporter assay and RT-qPCR in HEK293 cells; format: cell-based; conditions: DHEA 100 μM for 24 h
Method: In vitro luciferase reporter assay was performed to further validate the expression of SCD1 is transcriptional regulated by GPR110. Plasmid harbouring luciferase gene driven by the mouse SCD1 promoter (−2000 to +100) was constructed to transfect into HEK293 cells. Typically, HEK293 cells were cultured in DMEM supplemented with 10% FBS, 100 U/ml penicillin and 100 μg/ml streptomycin at 37° C. and 5% CO2, and then seeded in 6-well plates followed by transfection with pGL3-SCD1 promoter and adenoviral vector expressing either GPR110 (ADV-GPR110) or GFP (ADV-GFP) by using the transfection reagent (#E4981, Promega, WI, USA). There was no change of luciferase activity of pGL3- SCD1 promoter-luciferase transfected HEK293 cells under the treatment of GPR110 ligand DHEA, unless the HEK293 cells were pre-infected with adenovirus overexpressing GPR110 (ADV-GPR110; FIG. 9C). The overexpression of GPR110 in ADV-GPR110 infected cells and inductions of SCD1 mRNA expression by treatment of DHEA were also validated by RT-qPCR (FIG. 9D). The changes in hepatocyte lipid profiles by the expression level of GPR110 and SCD1 were also checked. In agreement with the in vivo data, the overexpression of GPR110 increased the intracellular CHO (FIG. 9E), TG (FIG. 9F) and FFA (FIG. 9G). […] In summary, the transcription level of SCD1 is regulated by GPR110. […]

SCD1 [1] = assay: SCD1 inhibitor MK8245 in HFD-fed rAAV-GPR110 mice: GPR110 expression, body weight, glucose homeostasis; format: in vivo, mouse
Method: FIG. 10A schematically depicts a scheme of different treatments to a mouse model according to certain embodiments, where eight-week-old male C57BL/6J mice were infected with either 3×10^11 copies of rAAV encoding GPR110 (rAAV-GPR110) via i.v. or control (rAAV-GFP) via i.v. after 8-week HFD feeding, and then 2 weeks after infection treated with SCD1 inhibitor, MK8245, at 10 mg/kg/week via oral administration (p.o.) or inhibitor vehicle (inhibitor-Veh.) via p.o.;
To evaluate the impacts of high hepatic GPR110 level on liver metabolism, GPR110 was overexpressed in the hepatocytes of HFD-fed mice by liver-directed rAAV/thyroxine binding globulin (TBG)-mediated gene expression system (FIGS. 2A and 3A). In general, 8-week-old C57BL/6J male mice were housed in pathogen-free conditions at controlled temperature with a 12-hour light-dark cycle and access to food and water ad libitum. The 8-week-old male mice were divided into two groups and fed with high-fat diet (HFD, 20% protein, 45% fat, 35% carbohydrates, Research Diets Inc., New Brunswick, NJ, USA), or standard chow diet (STC, 18.3% protein, 10.2% fat, 71.5% carbohydrates, Research Diet Inc., New Brunswick, NJ, USA) in some other examples, for 8 weeks. The recombinant adeno-associated virus vector rAAV2/8 transduction was conducted as described previously (Lee et al, 2016; Cheng et al, 2022). Briefly, mice were tail vein injected with 3×10^11 rAAV2/8 vector harboring either green fluorescent protein (GFP) or GPR110. In other examples, for antisense oligonucleotide (ASO) delivery, validated ASOs against mouse GPR110 were provided by Ionis Pharmaceuticals and injected subcutaneously once a week at 5 mg/kg body weight to the mice. In some other examples, for SCD1 inhibitor delivery, MK-8245 (MedChemExpress, NJ, USA) was gavage at 10 mg/kg once a week. All measurements were carried out in a randomized order. Typically, glucose profile measurement was performed in terms of the blood glucose and insulin level by collecting the blood samples from the tip of the tail of the mouse models using a glucometer. For the glucose tolerance test (GTT), insulin tolerance test (ITT) and pyruvate tolerance test (PTT), mice were fasted overnight prior to intraperitoneal injection of glucose (1 g/kg body weight (BW)) (Sigma, St. Louis, MO), 0.75 U/kg BW insulin (Novolin R, Novo Nordisk, Bagsvaerd, Denmark) or 1 g/kg BW pyruvate (Sigma, St. Louis, MO). Blood glucose levels were measured from the tip of tail vein at 15, 30, 60, 90 and 120 minutes after injection.

SCD1 [2] = assay: SCD1 inhibitor MK8245 in HFD-fed rAAV-GPR110 mice: circulating lipids, liver enzymes, hepatic steatosis
Method: In general, 8-week-old C57BL/6J male mice were housed in pathogen-free conditions at controlled temperature with a 12-hour light-dark cycle and access to food and water ad libitum. […] Briefly, mice were tail vein injected with 3×10^11 rAAV2/8 vector harboring either green fluorescent protein (GFP) or GPR110. […] All measurements were carried out in a randomized order.
Typically, for plasma and hepatic lipid level, serum levels of triglyceride (TG) and total cholesterol (CHO) were measured using commercial kit (Biosino, biotechnology and science INC, China) according to the manufacturer's instructions. Hepatic lipids were extracted using Folch methodology and liver extract was dissolved in ethanol for TG and CHO measurements. Both serum and hepatic levels of free fatty acid (FFA) were measured using commercial kit (Solarbio, China).
Typically, for liver function assay, the alanine aminotransferase (ALT) and aspartate aminotransferase (AST) levels were measured in serum using commercial kits (Stanbio, USA).

[3] = HFD-fed rAAV-GPR110 mice, vs untreated littermates
[4] = rAAV-GPR110 mice, chronic treatment for 11 weeks, 10 mg/kg/week p.o.
[5] = HFD-fed rAAV-GPR110 mice, 10 mg/kg/week p.o.
[6] = compared to the rAAV-GPR110 littermates

ClC(Cl)(Cl)Cl [CCl4]
SCD1 mRNA expression level (HFD-fed mice): significantly higher
expression of hepatic GPR110 mRNA (HFD-fed mice): significantly increased

CC/C=C\C/C=C\C/C=C\C/C=C\C/C=C\C/C=C\CCC(=O)NCCO [DHEA]
SCD1 mRNA expression (mouse SCD1 promoter; ADV-GPR110 infected HEK293 cells, RT-qPCR): inductions
luciferase activity of pGL3-SCD1 promoter-luciferase (mouse SCD1 promoter; HEK293 cells not pre-infected with ADV-GPR110): no change

O=C(O)Cn1nnc(-c2cc(N3CCC(Oc4cc(F)ccc4Br)CC3)no2)n1 [MK8245, 5-[3-[4-(2-bromo-5-fluorophenoxy)-1-piperidinyl]-5-isoxazolyl]-2H-tetrazole-2-acetic acid]
body weight (SCD1 [1]; HFD-fed rAAV-GPR110 mice, 10 mg/kg/week p.o., vs untreated littermates): lowered
HOMR-IR (SCD1 [1]; [3]): improved
fasting glucose level (SCD1 [1]; [3]): improved
insulin sensitivity by ITT (SCD1 [1]; [3]): no change
performance in GTT (SCD1 [1]; [3]): improved
performance in PTT (SCD1 [1]; [3]): improved
expression of GPR110 mRNA (SCD1 [1]; [4]): did not affect
expression of GPR110 protein (SCD1 [1]; [4]): did not affect
HDL (SCD1 [2]; HFD-fed rAAV-GPR110 mice): relatively higher
LDL level (SCD1 [2]; HFD-fed rAAV-GPR110 mice): no differences detected
circulating FFA level (SCD1 [2]; HFD-fed rAAV-GPR110 mice): no change
severity of fibrosis (SCD1 [2]; HFD-fed rAAV-GPR110 mice): partially reduced
circulating CHO level (SCD1 [2]; [5]): lowered
circulating TG level (SCD1 [2]; [5]): lowered
ALT level (SCD1 [2]; [6]): alleviated
AST level (SCD1 [2]; [6]): alleviated

CN(N=O)C(=O)N[C@@H]1[C@@H](O)[C@H](O)[C@@H](CO)O[C@@H]1O [STZ]
SCD1 mRNA expression level (HFD-fed mice): significantly higher
expression of hepatic GPR110 mRNA (HFD-fed mice): significantly increased
